Measured values as given in a melting point compilation (Tetko et al.; mined from patent text by program, amines drawn as free bases though some values may be those of a salt).

melting point	Compound
193 to 195 °C	COC(=O)Cn1c(C(=O)Nc2nc(-c3cc(OC)c(Cl)cc3OC)c(CCC3CCCCC3)s2)cc2cc(C)cc(C)c21
87 to 89 °C	CCOC(=O)C1=C(C)NC(C)=C(C(=O)OCCN2CCN(C(c3ccccc3)c3ccccc3)CC2)C1c1cccc(Cl)c1Cl (stereo not drawn)
174 to 175 °C	COc1ccc(CNc2nn(CC(=O)OC(C)(C)C)c(=O)c3ccc(C#N)cc23)cc1Cl
256 to 258 °C	COc1ccc(C(=O)NNC(=O)c2ccc([N+](=O)[O-])cc2)cc1
155 to 157 °C	O=c1[nH]c2ccccc2n1C1CCN(CC(O)CSc2ccc(F)cc2)CC1 (stereo not drawn)
258 to 263 °C	COc1ccc(-c2ccc3cc(C(=O)O)ccc3c2)cc1C12CC3CC(C)(CC(C)(C3)C1)C2
172 to 173 °C	C=C(c1ccc(C(C)C)cc1)c1c(C)c(NC(=O)CCCC)c(C)c2c1OCC2
155 to 158 °C	COc1ccc(C(=O)c2cc3cc(OC)ccc3[nH]2)cc1
97 °C	CCCc1ccc(CCc2ccc(-c3ccc(F)cc3)cc2)cc1
252 to 253 °C	CCn1cc(C(=O)O)c(=O)c2cc(F)c(N3CCN(S(=O)(=O)c4ccc(OC)cc4)CC3)c(F)c21
66 °C	CC(C)Oc1ccc(OC(C)C)c(OCCN2C(=O)c3ccccc3C2=O)c1
170 °C	CCCc1c(OCCCS(=O)(=O)c2c(C(C)C)nn3ccccc23)ccc(C(C)=O)c1O
85 to 88 °C	Cc1cc(SCc2cccc3[nH]c(-c4ccc(C(F)(F)F)cc4)cc23)ccc1OCC(=O)O
142 to 143 °C	COC(=O)c1ccc(-c2nnc(-c3ccc(C(C)(C)C)cc3)o2)c([N+](=O)[O-])c1
80 to 82 °C	Cc1ccc(-c2ccc3c(c2)C=C(C(=O)OC(C)(C)C)CO3)cc1
136 to 139 °C	COC(c1ccccc1)C1CCCCCC(=Cc2ccccc2)C1=O (stereo not drawn)
133 to 134 °C	COC(=O)CCn1c(=O)n(CCN2CCN(c3ccccc3)CC2)c(=O)c2cscc21
122 to 126 °C	CCN1C(=O)C2C3C=CC(CC3)C2(c2ccc(Cl)c(Cl)c2)C1=O (stereo not drawn)
92 to 93 °C	Cc1ccc(-c2cc[nH]c2)cc1
107 to 108 °C	CCOC(=O)c1cn(C)cc(-c2ccccc2)c1=O

melting point	Compound
106 to 107 °C	COc1cccc(C(C(N)=O)(c2c(Cl)cncc2Cl)C2CCCC2)c1 (stereo not drawn)
> 260 °C	CCCCC1=C(C(=O)O)Nc2ccc(C(=O)O)cc2C1O (stereo not drawn)
254 to 256 °C	O=C1CCC(N2Cc3c(CNC(=O)c4ccccn4)cccc3C2=O)C(=O)N1 (stereo not drawn)
102 to 104 °C	CCCCCCOc1cc(-c2ccc3cc4c(cc3c2)C(C)(C)CCC4(C)C)ccc1C(=O)OC
55 to 56 °C	Fc1cccc(SCc2nnc(-c3ccc4c(c3)CCO4)o2)c1
127 to 128 °C	Nc1c(Cl)nc2ccccc2c1NCc1cc(-c2ccc(F)cc2)no1
128 to 129 °C	CCC(CC)(CC(=O)Nc1cccc(OCc2ccc3cccc(F)c3n2)c1)C(=O)O
128 to 129 °C	CCCc1cccc2c(C=O)cc(OC)c(O)c12
99 °C	COc1ccc([C@@H]2CCc3cc(OC)ccc3[C@@H]2CCCO)cc1 (relative stereo)
189 to 190 °C	CN(CCc1ccccc1)C(=O)Cn1cc(C=CC=CC(=O)O)c2cc(OCc3ccccc3)ccc21
78 to 82 °C	Cc1noc(NS(=O)(=O)c2cccc(-c3ccccc3)c2)c1Br
130 to 131 °C	N#CCC12CC(c3ccccc31)c1ccccc12
192 to 193 °C	COc1ccc(C(=O)N2c3ccccc3C(N3CCCc4cc(NC(=O)OC(C)(C)C)ccc43)CC2C)cc1OC (stereo not drawn)
51 to 53 °C	CCCc1c(OC(=O)OCC)ccc2oc(Cc3ccc(OC)cc3)c(C)c12
146 to 148 °C	CCCCN(C(C)=O)C1NC(=O)N(c2cccc(C(F)(F)F)c2)C(=O)N1
107 to 108 °C	Cc1ccc(-c2cnn(C)c2)cc1
91 to 94 °C	CCCC(c1ccncc1)n1ccc2ccccc21 (stereo not drawn)
107 to 120 °C	COc1cc(OCc2ccccn2)ccc1/C=C/c1cc(/C=C/c2cccc3ncccc23)[nH]n1
104 to 106 °C	O=C(NCCSCc1ccc(Cl)cc1)c1c(Cl)cccc1Cl
194 °C	CCNS(=O)(=O)Oc1cc(C(C)(C)C)c(SC2=C(O)CC(CCc3ccc(N)cc3)(CCc3ccc(N)cc3)OC2=O)cc1C

The next lines start with the compound.

Compound	melting point
CC(C)c1nc(COCc2ccccc2)n(C(C)F)c1Sc1cc(Cl)cc(Cl)c1 (stereo not drawn)	131 to 132 °C
N#Cc1nn(-c2c(Cl)cc(C(F)(F)F)cc2Cl)c(Cl)c1I	116 °C
O=C(Nc1c[nH]nc1C(=O)NCCSc1ccccc1)c1ccccn1	180 to 181 °C
C=CCc1cc(Br)ccc1OCC(=O)OCC	70.5 °C
N#CC(=Cc1ccc(F)cc1[N+](=O)[O-])C(N)=O	278 to 279 °C
CCCOc1c2cc(F)c(F)cc2nc2c1c(C)nn2-c1ccccn1	162 to 163 °C
O=C(O)c1coc(-c2ccc(Cl)c(C(=O)NCC34CC5CC(CC(C5)C3)C4)c2)n1	254 to 257 °C
Cn1c(C(F)(F)F)cc(=O)n(-c2ccc3snc(C(=O)O)c3c2)c1=O	149 to 152 °C
CCCc1c(OCCCCCCC2(C)CC(=O)c3ccc(OCC(=O)O)c(CCC)c3O2)ccc(C(C)=O)c1O (stereo not drawn)	120 to 125 °C
Cn1ncc(C(=O)NN)c1S(N)(=O)=O	172 to 173 °C
CN(C)Cc1cc(C(=O)c2cccn2C)cc(C(C)(C)C)c1O	174 °C
CC(C)(C)OC(=O)N1CCC(Oc2cccc3[nH]ncc23)C1 (stereo not drawn)	196 to 198 °C
O=c1[nH]c(COc2cccc(Cl)c2Cl)nc2nccnc12	219 to 220 °C
N#Cc1cc(C(=O)NN2CCOCC2)ccc1OCC(=O)O	205 to 206 °C
CCCC(O)(C(=O)Nc1cc(Br)nc(OC)c1)C(C)C (stereo not drawn)	116 °C
CS(=O)(=O)Nc1cccc(S(=O)(=O)N2CCOc3c(N4CCNCC4)cccc32)c1	158 to 164 °C
CN1CCc2c(C3=CC(=O)CCC3)c(F)cc3c(=O)c(C(=O)O)cn1c23	> 300 °C
COC(=O)/C=C/c1cc([N+](=O)[O-])cn1C	146 to 147 °C
CN1C(=O)[C@](C)(C(=O)O)Oc2ccccc21	139 to 142 °C
N[C@@H](Cc1ccccc1)c1nc2c(C(F)(F)F)cccc2c(O)c1C(=O)Nc1nccs1	234 °C

Compound	melting point
CCOC(=O)c1cn(C2CC2)c2c(OC(F)F)c(F)c(F)c([N+](=O)[O-])c2c1=O	262 to 268 °C
NC(=O)CN1CCN(c2ccc(NC(=O)c3ccccc3-c3ccc(C(F)(F)F)cc3)cc2)CC1	226 to 228 °C
COc1ccc(C(=O)Nc2c(Cl)cncc2Cl)c2[nH]c(C(F)(F)F)nc12	300 to 301 °C
Cn1ccc(=O)c(O)c1C(O)c1ccccc1 (stereo not drawn)	210 to 213 °C
Cc1ccc(C2C3=C(CC(C)(C)CC3=O)NC3=C2C(=O)CC(C)(C)C3)cc1[N+](=O)[O-]	> 300 °C
N#Cc1cc([N+](=O)[O-])ccc1NC(=O)C(F)(OC(F)(F)C(F)(F)C(F)(F)F)C(F)(F)F (stereo not drawn)	96 °C
CCC(C)(C)c1cccc(C(=O)NN)c1O	156 to 157 °C
ONC(CCc1ccccc1)CCc1ccccc1	54 to 55 °C
Nc1cc(C(F)(F)F)ccc1NC1CCCCC1	70 °C
CCc1[nH]n(C2CCCC2)c2nc(-c3cc(C)nc(-n4ccnc4)c3)nc(=O)c1-2	277 to 278 °C
CCSc1cc(C)nc(SCC)c1NC(=O)CCCCSc1nc2cccc(C(F)(F)F)c2o1	155 to 156 °C
COc1ccccc1OC(=O)c1ncn2c1[C@@H]1CCCN1C(=O)c1c(Cl)cccc1-2	205 to 206 °C
N#Cc1ccc(CCN2CCC(NC(=O)C34CC5CC(CC(C5)C3)C4)C2)cc1 (stereo not drawn)	104 to 105 °C
N#CCCC(=O)c1cccc(Cl)c1	49 to 51 °C
O=C1NCN(c2ccc(F)cc2)C12CCN(CCCN(c1ccc(F)cc1)c1ccc(F)cc1)CC2	162 to 163 °C
Nc1nc(NCc2ccccc2)nc(-c2cc(Cl)ccc2Cl)n1	200 to 201 °C
C=Cc1ccc(C(=O)NC(C#N)n2cccn2)cc1 (stereo not drawn)	159 to 161 °C
CC(=O)SC(CC(=O)c1ccc(Cl)cc1Cl)C(=O)O (stereo not drawn)	73 to 74.5 °C
CONC(=O)Nc1ccc(-c2sc3c(c2CN(C)C(C)c2ccccc2)c(=O)n(-c2ccccn2)c(=O)n3Cc2c(F)cccc2F)cc1 (stereo not drawn)	168 to 170 °C
O=C(c1ccccc1)c1ncc(=O)n(CC(F)(F)F)n1	174 to 175 °C

Compound	melting point
Cc1ccc(Br)c2occc12	32 to 33 °C
COc1ccccc1SC1CC(=O)N1 (stereo not drawn)	103 to 105 °C
COCCOc1ccc(/C=C/C2(O)CN3CCC2CC3)cc1 (stereo not drawn)	164 to 166 °C
CCOC(=O)C1C2C1S(=O)(=O)CC2(N)C(=O)OCC (stereo not drawn)	80 to 83 °C
O=S(=O)(Oc1cc(I)c(I)cc1OS(=O)(=O)C(F)(F)F)C(F)(F)F	46.5 to 47.7 °C
Cc1cnc2c(Br)c(NC3=NCCN3)ccc2n1	260 °C
FC(F)(F)Oc1ccc2[nH]c(S)nc2c1	305 to 307 °C
Cc1c(CCNC(=S)Nc2nccs2)cccc1C(F)(F)F	158 to 159 °C
COc1ccc(N2Cc3ccccc3P2(C)=O)cc1 (stereo not drawn)	148 to 150 °C
CC(C)CC(Oc1c(Br)cc(-c2ccc(-c3c(Cc4ccccc4)oc4ccccc34)cc2)cc1Br)C(=O)O (stereo not drawn)	81 to 83 °C
OCc1ccccc1C(F)(F)C(F)(F)c1ccccc1	80 to 81 °C
CN1C(=O)C2(COc3cc4c(cc32)OCCO4)c2c(NC(=O)NC3CCCC3)cccc21 (stereo not drawn)	133 to 135 °C
CC#CC(=O)Nc1cccc(-c2ccnc3c(C(=O)c4cccs4)cnn23)c1	202 to 203 °C
O=C(c1cc2cc(OCc3ccccc3)ccc2[nH]1)C12CC3CC(CC(C3)C1)C2	189 to 191 °C
Cn1cc(-c2ccncn2)cc(Br)c1=O	208 to 210 °C
O=C(O)C=Cc1cccc(Sc2c[nH]c3ccccc23)c1	165 to 167 °C
Cn1nc(C(F)(F)F)c(CS(=O)(=O)C2=NOC(C)(C)C2)c1Cl	115 to 116 °C
COC(=O)C(=CC(=CN(C)C)c1ccc(C)cc1[N+](=O)[O-])[N+](=O)[O-]	213 to 215 °C
